Measurements taken from patent US20220370368A1, “ORAL PHARMACEUTICAL COMPOSITION COMPRISING A MELT-AGGLOMERATED ACTIVE INGREDIENT CORE” (Hermes Pharma GmbH, priority 2019, published 2022).

Assay: Angle of repose according to Ph.Eur. chapter 2.9.36
Type: physicochemical
Conditions: prior to agglomeration
Excerpt: Any flow property provisions such as “passable”, “poor” or “very poor” as used herein shall be understood as flow properties measured and ranked according to pharmacopoeial standards (e.g. European Pharmacopoeia, 6th edition, chapter 2.9.36) unless where specified otherwise: […]

## CN(C)CCOC(c1ccccc1)c1ccccc1.Cn1c(=O)c2[nH]c(Cl)nc2n(C)c1=O [Dimenhydrinate]
  Angle of repose: 52 °
